Source: the NIST ThermoML archive (doi:10.1016/j.fluid.2009.08.017)
Numbers after ± are expanded uncertainties.

Assay: activity coefficient (dimensionless); of the first substance listed, at infinite dilution; xn = mol fraction of the nth substance listed
Details: 101 kPa, Liquid, Chromatography, x1 = 0

SMILES	activity coefficient (298.15 K)	activity coefficient (308.15 K)	activity coefficient (318.15 K)	activity coefficient (328.15 K)	activity coefficient (338.15 K)	activity coefficient (348.15 K)	activity coefficient (358.15 K)	activity coefficient (368.15 K)
c1ccsc1 [thiophene] + CCCCCCOCn1cc[n+](C)c1.O=S(=O)([N-]S(=O)(=O)C(F)(F)F)C(F)(F)F	0.743 ± 0.049	0.744 ± 0.049	0.744 ± 0.049	0.745 ± 0.049	0.746 ± 0.049	0.746 ± 0.049	0.747 ± 0.049	0.747 ± 0.049
CC(C)=O [acetone] + CCCCCCOCn1cc[n+](COCCCCCC)c1.O=S(=O)([N-]S(=O)(=O)C(F)(F)F)C(F)(F)F	0.262 ± 0.03	0.267 ± 0.03	0.272 ± 0.03	0.277 ± 0.03	0.281 ± 0.03	0.286 ± 0.031	0.29 ± 0.031	0.294 ± 0.031
Cc1ccc(C)cc1 [1,4-dimethylbenzene] + CCCCCCOCn1cc[n+](COCCCCCC)c1.O=S(=O)([N-]S(=O)(=O)C(F)(F)F)C(F)(F)F			0.949 ± 0.06	0.952 ± 0.06	0.955 ± 0.06	0.958 ± 0.06	0.96 ± 0.06	0.962 ± 0.06
C#CCCC [1-pentyne] + CCCCCCOCn1cc[n+](C)c1.O=S(=O)([N-]S(=O)(=O)C(F)(F)F)C(F)(F)F	1.54 ± 0.1	1.56 ± 0.1	1.57 ± 0.1	1.58 ± 0.1	1.59 ± 0.11	1.59 ± 0.11	1.6 ± 0.11	1.61 ± 0.11
CCCCO [butan-1-ol] + CCCCCCOCn1cc[n+](COCCCCCC)c1.O=S(=O)([N-]S(=O)(=O)C(F)(F)F)C(F)(F)F			1.19 ± 0.08	1.1 ± 0.07	1.01 ± 0.064	0.943 ± 0.059	0.877 ± 0.056	0.82 ± 0.053
Cc1cccc(C)c1 [1,3-dimethylbenzene] + CCCCCCOCn1cc[n+](COCCCCCC)c1.O=S(=O)([N-]S(=O)(=O)C(F)(F)F)C(F)(F)F			0.944 ± 0.06	0.946 ± 0.06	0.948 ± 0.06	0.951 ± 0.06	0.953 ± 0.06	0.955 ± 0.06
CCCCCC [hexane] + CCCCCCOCn1cc[n+](C)c1.O=S(=O)([N-]S(=O)(=O)C(F)(F)F)C(F)(F)F	8.36 ± 0.57	7.96 ± 0.54	7.59 ± 0.52	7.27 ± 0.5	6.98 ± 0.48	6.71 ± 0.46	6.46 ± 0.44	6.24 ± 0.43
CCCCC [pentane] + CCCCCCOCn1cc[n+](COCCCCCC)c1.O=S(=O)([N-]S(=O)(=O)C(F)(F)F)C(F)(F)F	2.78 ± 0.19	2.69 ± 0.18	2.62 ± 0.18	2.54 ± 0.17	2.48 ± 0.17	2.43 ± 0.17	2.38 ± 0.16	2.33 ± 0.16
CCOCC [diethyl ether] + CCCCCCOCn1cc[n+](C)c1.O=S(=O)([N-]S(=O)(=O)C(F)(F)F)C(F)(F)F	1.35 ± 0.09	1.37 ± 0.09	1.38 ± 0.09	1.4 ± 0.09	1.41 ± 0.09	1.43 ± 0.09	1.44 ± 0.09	1.45 ± 0.1
Cc1ccccc1 [toluene] + CCCCCCOCn1cc[n+](COCCCCCC)c1.O=S(=O)([N-]S(=O)(=O)C(F)(F)F)C(F)(F)F		0.743 ± 0.049	0.746 ± 0.049	0.749 ± 0.049	0.753 ± 0.05	0.756 ± 0.05	0.758 ± 0.05	0.761 ± 0.05
CCc1ccccc1 [ethylbenzene] + CCCCCCOCn1cc[n+](C)c1.O=S(=O)([N-]S(=O)(=O)C(F)(F)F)C(F)(F)F		1.49 ± 0.098	1.49 ± 0.098	1.49 ± 0.098	1.5 ± 0.098	1.5 ± 0.099	1.5 ± 0.099	1.5 ± 0.099
C=CCCCCC [1-heptene] + CCCCCCOCn1cc[n+](COCCCCCC)c1.O=S(=O)([N-]S(=O)(=O)C(F)(F)F)C(F)(F)F	2.7 ± 0.18	2.64 ± 0.18	2.59 ± 0.18	2.54 ± 0.17	2.49 ± 0.17	2.45 ± 0.17	2.41 ± 0.16	2.37 ± 0.16
Cc1ccccc1C [1,2-dimethylbenzene] + CCCCCCOCn1cc[n+](COCCCCCC)c1.O=S(=O)([N-]S(=O)(=O)C(F)(F)F)C(F)(F)F			0.89 ± 0.057	0.891 ± 0.057	0.892 ± 0.057	0.894 ± 0.057	0.895 ± 0.057	0.896 ± 0.057
Cc1ccccc1C [1,2-dimethylbenzene] + CCCCCCOCn1cc[n+](C)c1.O=S(=O)([N-]S(=O)(=O)C(F)(F)F)C(F)(F)F			1.33 ± 0.086	1.34 ± 0.087	1.35 ± 0.087	1.35 ± 0.088	1.36 ± 0.088	1.36 ± 0.089
C=CCCCCCC [oct-1-ene] + CCCCCCOCn1cc[n+](COCCCCCC)c1.O=S(=O)([N-]S(=O)(=O)C(F)(F)F)C(F)(F)F	3.28 ± 0.22	3.2 ± 0.22	3.12 ± 0.21	3.05 ± 0.21	2.99 ± 0.2	2.93 ± 0.2	2.87 ± 0.2	2.83 ± 0.19
CCCCCCCCC [nonane] + CCCCCCOCn1cc[n+](C)c1.O=S(=O)([N-]S(=O)(=O)C(F)(F)F)C(F)(F)F	17.8 ± 1.2	16.6 ± 1.1	15.5 ± 1.1	14.6 ± 1	13.8 ± 0.9	13.2 ± 0.9	12.4 ± 0.8	11.9 ± 0.8
C#CCCCC [1-hexyne] + CCCCCCOCn1cc[n+](COCCCCCC)c1.O=S(=O)([N-]S(=O)(=O)C(F)(F)F)C(F)(F)F	1.16 ± 0.074	1.17 ± 0.075	1.17 ± 0.075	1.18 ± 0.075	1.18 ± 0.076	1.19 ± 0.076	1.19 ± 0.076	1.19 ± 0.076
CCCCC [pentane] + CCCCCCOCn1cc[n+](C)c1.O=S(=O)([N-]S(=O)(=O)C(F)(F)F)C(F)(F)F	7.34 ± 0.5	6.93 ± 0.47	6.54 ± 0.45	6.25 ± 0.43	5.92 ± 0.4	5.68 ± 0.39	5.43 ± 0.37	5.21 ± 0.36
CCCCCC [hexane] + CCCCCCOCn1cc[n+](COCCCCCC)c1.O=S(=O)([N-]S(=O)(=O)C(F)(F)F)C(F)(F)F	3.22 ± 0.22	3.13 ± 0.21	3.04 ± 0.21	2.97 ± 0.2	2.9 ± 0.2	2.83 ± 0.19	2.77 ± 0.19	2.72 ± 0.19
CCc1ccccc1 [ethylbenzene] + CCCCCCOCn1cc[n+](COCCCCCC)c1.O=S(=O)([N-]S(=O)(=O)C(F)(F)F)C(F)(F)F	0.967 ± 0.061	0.966 ± 0.061	0.965 ± 0.061	0.964 ± 0.061	0.963 ± 0.061	0.963 ± 0.061	0.962 ± 0.06	
